Values after ≈ are worked out from the molar mass of the structure shown.
Experiments:
[1] = tested on: Mycobacterium tuberculosis; assay: Antitubercular activity against Mycobacterium tuberculosis H37Rv after 7 days by Alamar blue assay; format: functional; settings: 168 h
[2] = Cytotoxicity against mouse RAW264.7 cells assessed as growth inhibition at 50 ug/ml after 48 hrs by MTT assay relative to control; format: cell-based; settings: read-out: GI

Row | Structure (SMILES) | MIC99 [1] [µM] | inhibition at 48 h, 50 ug/ml [2] [%]
1 | O=C(NCc1ccccc1)c1ccccc1-n1cc2cc3c(cc2n1)OCO3 | 4.2 (≈ 1.56 µg/mL) | 22.9
2 | COc1ccc(CNC(=O)c2ccccc2-n2cc3ccccc3n2)cc1 | 35 (≈ 12.5 µg/mL) | –
3 | COc1ccc(NC(=O)c2ccccc2-n2cc3ccccc3n2)cc1 | 36.4 (≈ 12.5 µg/mL) | –
4 | O=C(NCc1ccccc1)c1ccccc1-n1cc2ccc(Br)cc2n1 | 56.4 (≈ 22.9 µg/mL) | –
5 | O=C(NCCc1c[nH]c2ccccc12)c1ccccc1-n1cc2ccccc2n1 | 16.4 (≈ 6.25 µg/mL) | 18.8
6 | CCCCNC(=O)c1ccccc1-n1cc2ccccc2n1 | 85.3 (≈ 25 µg/mL) | –
7 | O=C(NCc1ccc(F)cc1)c1ccccc1-n1cc2ccccc2n1 | 36.3 (≈ 12.6 µg/mL) | –
8 | NNC(=O)c1ccncc1 [ISONIAZID] | 0.4 (≈ 0.0549 µg/mL) | –
9 | O=C(NCc1ccccc1)c1ccccc1-n1cc2ccccc2n1 | 19.1 (≈ 6.26 µg/mL) | 31.6
10 | O=C(NCc1ccccc1)c1ccccc1-n1cc2ccc(Cl)cc2n1 | 17.3 (≈ 6.26 µg/mL) | 30.6
11 | Cc1ccc(CNC(=O)c2ccccc2-n2cc3ccccc3n2)cc1 | 9.16 (≈ 3.13 µg/mL) | 34.5
12 | O=C(NC1CCCCC1)c1ccccc1-n1cc2ccccc2n1 | 78.4 (≈ 25 µg/mL) | –
13 | Cc1ccnc(NC(=O)c2ccccc2-n2cc3ccccc3n2)c1 | 38.1 (≈ 12.5 µg/mL) | –
14 | O=C(Nc1ccccn1)c1ccccc1-n1cc2ccccc2n1 | 19.9 (≈ 6.26 µg/mL) | 31.8
15 | O=C(Nc1ccccc1)c1ccccc1-n1cc2ccccc2n1 | 15.8 (≈ 4.96 µg/mL) | 39.6
16 | O=C(Nc1ccccc1O)c1ccccc1-n1cc2ccccc2n1 | 38 (≈ 12.5 µg/mL) | –
17 | CC[C@@H](CO)NCCN[C@@H](CC)CO [ETHAMBUTOL] | 7.6 (≈ 1.55 µg/mL) | –
18 | CO[C@H]1/C=C/O[C@@]2(C)Oc3c(C)c(O)c4c(O)c(c(/C=N/N5CCN(C)CC5)c(O)c4c3C2=O)NC(=O)/C(C)=C\C=C\[C@H](C)[C@H](O)[C@@H](C)[C@@H](O)[C@@H](C)[C@H](OC(C)=O)[C@@H]1C [RIFAMPIN] | 0.5 (≈ 0.411 µg/mL) | –
19 | Cc1ccc(NC(=O)c2ccccc2-n2cc3ccccc3n2)c(C)c1 | 18.3 (≈ 6.25 µg/mL) | 36.7
20 | O=C(NCc1ccc(Cl)cc1)c1ccccc1-n1cc2ccccc2n1 | 8.66 (≈ 3.13 µg/mL) | 28.1
21 | COc1cc(NC(=O)c2ccccc2-n2cc3ccccc3n2)cc(OC)c1OC | 7.75 (≈ 3.13 µg/mL) | 32.1
22 | CC(C)(C)NC(=O)c1ccccc1-n1cc2ccccc2n1 | 42.7 (≈ 12.5 µg/mL) | –
23 | O=C(NCc1ccccc1)c1ccccc1-n1cc2cc(Br)ccc2n1 | 7.72 (≈ 3.14 µg/mL) | 40.5
24 | O=C(NCc1ccccc1Cl)c1ccccc1-n1cc2ccccc2n1 | 10.6 (≈ 3.83 µg/mL) | 23.7
25 | O=C(Nc1ccc(F)cc1)c1ccccc1-n1cc2ccccc2n1 | 37.8 (≈ 12.5 µg/mL) | –

Source: ChEMBL document CHEMBL4004872, “A robust synthesis of functionalized 2H-indazoles via solid state melt reaction (SSMR) and their anti-tubercular activity” (Bioorg Med Chem Lett, 2017)
